Results reported in ChEMBL document CHEMBL5523675, “Novel mitochondrial and DNA damaging fluorescent Calix[4]arenes bearing isatin groups as aromatase inhibitors: Design, synthesis and anticancer activity” (Bioorg Med Chem, 2024).
pIC50: −log10 of the molar value.

Columns and labels:
MDA-MB-231 [1] = test: Antiproliferative activity against human MDA-MB-231 cells assessed as inhibition of cell growth measured after 48 hrs by Alamar blue dye based assay; assay type: functional; settings: MDA-MB-231, 48 h
MCF7 [2] = test: Antiproliferative activity against human MCF7 cells assessed as inhibition of cell growth measured after 48 hrs by Alamar blue dye based assay; assay type: functional; settings: MCF7, 48 h
[3] = Antiproliferative activity against human PNT1A cells assessed as inhibition of cell growth measured after 48 hrs by Alamar blue dye based assay; assay type: toxicity
[4] = Drug localization in mitochondria of human MDA-MB-231 cells at 2 uM incubated for 45 mins by MitoTracker dye based confocal laser scanning microscopic analysis; assay type: ADME; settings: mda-mb-231, 0.75 h
MCF7 [5] = test: Induction of apoptosis in human MCF7 cells assessed as live cells incubated for 48 hrs by annexin V and 7-AAD staining based flow cytometry analysis (reference value: 99.14%); assay type: functional
[6] = Genotoxicity in human MDA-MB-231 cells assessed as appearance of damaged DNA structures measured after 48 hrs by ethidium bromide staining based fluorescent microscopic analysis; assay type: toxicity, cell-based; settings: mda-mb-231, 48 h
MDA-MB-231 [7] = test: Induction of apoptosis in human MDA-MB-231 cells assessed as late apoptotic cells incubated for 48 hrs by annexin V and 7-AAD staining based flow cytometry analysis (reference value: 0.12%); assay type: functional
MDA-MB-231 [8] = test: Induction of apoptosis in human MDA-MB-231 cells assessed as necrosis incubated for 48 hrs by annexin V and 7-AAD staining based flow cytometry analysis (reference value: 0.09%); assay type: functional
PNT1A [9] = test: Induction of apoptosis in human PNT1A cells assessed as live cells incubated for 48 hrs by annexin V and 7-AAD staining based flow cytometry analysis (reference value: 99.69%); assay type: functional
Aromatase = target: T1, Aromatase (Homo sapiens, UniProt P11511); test: Inhibition of human Aromatase by fluorimetric assay
T1 sequence (P11511 whole entry): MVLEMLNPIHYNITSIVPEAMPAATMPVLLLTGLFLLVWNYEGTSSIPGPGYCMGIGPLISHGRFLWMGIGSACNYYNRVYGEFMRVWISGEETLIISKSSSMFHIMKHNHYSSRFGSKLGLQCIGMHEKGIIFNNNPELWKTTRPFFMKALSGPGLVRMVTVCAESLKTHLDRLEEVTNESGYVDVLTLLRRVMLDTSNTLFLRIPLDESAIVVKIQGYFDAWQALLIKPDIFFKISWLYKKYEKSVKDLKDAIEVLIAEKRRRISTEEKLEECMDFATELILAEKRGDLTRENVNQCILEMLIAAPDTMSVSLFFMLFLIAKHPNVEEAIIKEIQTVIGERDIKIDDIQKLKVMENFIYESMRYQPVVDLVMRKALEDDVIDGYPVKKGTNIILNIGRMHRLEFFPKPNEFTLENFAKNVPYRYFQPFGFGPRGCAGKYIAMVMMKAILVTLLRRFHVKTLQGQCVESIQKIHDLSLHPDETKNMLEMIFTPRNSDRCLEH

[10] = Genotoxicity in human MCF7 cells assessed as appearance of damaged DNA structures measured after 48 hrs by ethidium bromide staining based fluorescent microscopic analysis; assay type: toxicity, cell-based; settings: mcf7, 48 h
MDA-MB-231 [11] = test: Induction of apoptosis in human MDA-MB-231 cells assessed as early apoptotic cells incubated for 48 hrs by annexin V and 7-AAD staining based flow cytometry analysis (reference value: 0.18%); assay type: functional
PNT1A [12] = test: Induction of apoptosis in human PNT1A cells assessed as necrosis incubated for 48 hrs by annexin V and 7-AAD staining based flow cytometry analysis (reference value: 0.22%); assay type: functional
PNT1A [13] = test: Induction of apoptosis in human PNT1A cells assessed as late apoptotic cells incubated for 48 hrs by annexin V and 7-AAD staining based flow cytometry analysis (reference value: 0.04%); assay type: functional
MCF7 [14] = test: Induction of apoptosis in human MCF7 cells assessed as late apoptotic cells incubated for 48 hrs by annexin V and 7-AAD staining based flow cytometry analysis (reference value: 0.68%); assay type: functional
PNT1A [15] = test: Induction of apoptosis in human PNT1A cells assessed as early apoptotic cells incubated for 48 hrs by annexin V and 7-AAD staining based flow cytometry analysis (reference value: 0.04%); assay type: functional
[16] = Genotoxicity in human MDA-MB-231 cells assessed as abnormal tail nuclei measured after 48 hrs by ethidium bromide staining based fluorescent microscopic analysis; assay type: toxicity, cell-based; settings: mda-mb-231, 48 h
MCF7 [17] = test: Induction of apoptosis in human MCF7 cells assessed as early apoptotic cells incubated for 48 hrs by annexin V and 7-AAD staining based flow cytometry analysis (reference value: 0.14%); assay type: functional
MDA-MB-231 [18] = test: Induction of apoptosis in human MDA-MB-231 cells assessed as live cells incubated for 48 hrs by annexin V and 7-AAD staining based flow cytometry analysis (reference value: 99.61%); assay type: functional
MCF7 [19] = test: Induction of apoptosis in human MCF7 cells assessed as necrosis incubated for 48 hrs by annexin V and 7-AAD staining based flow cytometry analysis (reference value: 0.03%); assay type: functional
[20] = Genotoxicity in human MCF7 cells assessed as abnormal tail nuclei measured after 48 hrs by ethidium bromide staining based fluorescent microscopic analysis; assay type: toxicity, cell-based; settings: mcf7, 48 h

Row | SMILES | pIC50 (MDA-MB-231 [1]) | pIC50 (MCF7 [2]) | IC50 at 48 h [3] [µM] | Activity (MCF7 [5]) [%] | Activity [6] | Activity (MDA-MB-231 [7]) [%] | Activity (MDA-MB-231 [8]) [%] | Live cells (PNT1A [9]) [%] | pIC50 (Aromatase) | Activity [10] | Activity (MDA-MB-231 [11]) [%] | Activity (PNT1A [12]) [%] | Activity (PNT1A [13]) [%] | Activity (MCF7 [14]) [%] | Activity (PNT1A [15]) [%] | Activity [16] | Activity (MCF7 [17]) [%] | Activity (MDA-MB-231 [18]) [%] | Activity (MCF7 [19]) [%] | Activity [20] | further results
1 | O=c1[nH]cc(F)c(=O)[nH]1 [FLUOROURACIL] | 5.17 | 4.45 | 192 |  |  |  |  |  |  |  |  |  |  |  |  |  |  |  |  |  | 
2 | C[n+]1ccc(/C=C/c2cc3c(O)c(c2)Cc2cc(C(C)(C)C)cc(c2OCCCn2cc(CN4C(=O)C(=O)c5cc(Cl)ccc54)nn2)Cc2cc(/C=C/c4cc[n+](C)cc4)cc(c2O)Cc2cc(C(C)(C)C)cc(c2OCCCn2cc(CN4C(=O)C(=O)c5cc(Cl)ccc54)nn2)C3)cc1.[I-].[I-] | 5.48 | 5.05 | 32.9 | 53.45 | Toxic | 2.74 | 13.63 | 97.91 | 6.98 | Toxic | 0.23 | 0.11 | 0.25 | 36.24 | 1.74 | Toxic | 4.56 | 83.4 | 5.75 | Toxic | Drug uptake [4]: Active
3 | C[n+]1ccc(/C=C/c2cc3c(O)c(c2)Cc2cc(C(C)(C)C)cc(c2OCCCn2cc(CN4C(=O)C(=O)c5cc(I)ccc54)nn2)Cc2cc(/C=C/c4cc[n+](C)cc4)cc(c2O)Cc2cc(C(C)(C)C)cc(c2OCCCn2cc(CN4C(=O)C(=O)c5cc(I)ccc54)nn2)C3)cc1.[I-].[I-] | 5.40 | 4.82 | 72.5 | 49.15 | Toxic | 1.57 | 13.61 | 96.68 | 5.99 | Toxic | 0.21 | 0.02 | 1.09 | 36.55 | 2.22 | Toxic | 12.97 | 84.61 | 1.33 | Toxic | 
4 | C[n+]1ccc(/C=C/c2cc3c(O)c(c2)Cc2cc(C(C)(C)C)cc(c2OCCCn2cc(CBr)nn2)Cc2cc(/C=C/c4cc[n+](C)cc4)cc(c2O)Cc2cc(C(C)(C)C)cc(c2OCCCn2cc(CBr)nn2)C3)cc1 | 4.64 | 4.55 | 86.4 |  |  |  |  |  |  |  |  |  |  |  |  |  |  |  |  |  | 
5 | C[n+]1ccc(/C=C/c2cc3c(O)c(c2)Cc2cc(C(C)(C)C)cc(c2OCCCn2cc(CN4C(=O)C(=O)c5cc(Br)ccc54)nn2)Cc2cc(/C=C/c4cc[n+](C)cc4)cc(c2O)Cc2cc(C(C)(C)C)cc(c2OCCCn2cc(CN4C(=O)C(=O)c5cc(Br)ccc54)nn2)C3)cc1.[I-].[I-] | 5.42 | 5.00 | 57.2 | 40.42 | Toxic | 1.6 | 10.87 | 96.14 | 6.50 | Toxic | 0.4 | 0.14 | 1.13 | 24.62 | 2.6 | Toxic | 34.66 | 87.12 | 0.3 | Toxic | 
6 | C[n+]1ccc(/C=C/c2cc3c(O)c(c2)Cc2cc(C(C)(C)C)cc(c2OCCCn2cc(CN4C(=O)C(=O)c5ccccc54)nn2)Cc2cc(/C=C/c4cc[n+](C)cc4)cc(c2O)Cc2cc(C(C)(C)C)cc(c2OCCCn2cc(CN4C(=O)C(=O)c5ccccc54)nn2)C3)cc1.[I-].[I-] | 5.03 | 4.72 | 77.6 | 50.95 | Toxic | 1.66 | 6.66 | 99.14 | 6.29 | Toxic | 0.26 | 0.63 | 0.08 | 37.69 | 0.16 | Toxic | 8.09 | 91.42 | 3.27 | Toxic | 
7 | Cc1ccc2c(c1)C(=O)C(=O)N2Cc1cn(CCCOc2c3cc(C(C)(C)C)cc2Cc2cc(/C=C/c4cc[n+](C)cc4)cc(c2O)Cc2cc(C(C)(C)C)cc(c2OCCCn2cc(CN4C(=O)C(=O)c5cc(C)ccc54)nn2)Cc2cc(/C=C/c4cc[n+](C)cc4)cc(c2O)C3)nn1.[I-].[I-] | 5.28 | 4.99 | 74.9 | 71.51 | Toxic | 1.31 | 14.78 | 95.6 | 6.66 | Toxic | 0.02 | 0.06 | 0.35 | 15.04 | 3.99 | Toxic | 10.49 | 83.89 | 2.96 | Toxic | 
8 | C[n+]1ccc(/C=C/c2cc3c(O)c(c2)Cc2cc(C(C)(C)C)cc(c2OCCCn2cc(CN4C(=O)C(=O)c5cc(F)ccc54)nn2)Cc2cc(/C=C/c4cc[n+](C)cc4)cc(c2O)Cc2cc(C(C)(C)C)cc(c2OCCCn2cc(CN4C(=O)C(=O)c5cc(F)ccc54)nn2)C3)cc1.[I-].[I-] | 5.25 | 4.94 | 62.9 | 41.92 | Toxic | 2.03 | 33.01 | 93.92 | 6.15 | Toxic | 0.11 | 0.1 | 0.28 | 45.79 | 5.69 | Toxic | 2.18 | 64.85 | 10.11 | Toxic | 
